For assay [1], the target named is T1, T217E Aurora A (Homo sapiens, UniProt O14965, T217E).
T1 construct: For enzyme and DSF assays, full-length human Aurora A and Aurora B and 1–43 TPX2 were produced; made in house; host or cells: E. coli
T1 sequence (O14965 1-403 T217E): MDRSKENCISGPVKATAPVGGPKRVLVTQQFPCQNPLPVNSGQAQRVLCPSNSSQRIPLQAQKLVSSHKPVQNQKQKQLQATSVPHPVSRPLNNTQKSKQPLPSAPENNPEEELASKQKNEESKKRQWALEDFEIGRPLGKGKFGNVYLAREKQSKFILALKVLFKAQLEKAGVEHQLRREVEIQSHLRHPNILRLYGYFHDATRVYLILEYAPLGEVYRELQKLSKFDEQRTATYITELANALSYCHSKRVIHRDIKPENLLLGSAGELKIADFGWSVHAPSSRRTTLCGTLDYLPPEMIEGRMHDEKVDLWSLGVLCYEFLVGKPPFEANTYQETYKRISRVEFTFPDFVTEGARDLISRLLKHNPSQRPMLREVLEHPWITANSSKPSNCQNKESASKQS
Nature of the assay: Thermal shift assay (differential scanning fluorimetry). The conditions noted are these: 5 mM ATP, 5 mM CoA or 0.1 mM MLN8237. It counts as binding. Here is the method:
(§1) Asp274Asn and Thr217Glu Aurora A mutants were generated by PCR-site directed mutagenesis, expressed and purified as described previously. Cys290Ala Aurora A was generated using standard procedures, and purified as described.
(§2) Thermal-shift assays were performed with a StepOnePlus Real-Time PCR machine (Life Technologies) using Sypro-Orange dye (Invitrogen) and thermal ramping (0.3 °C in step intervals between 25 and 94 °C). All proteins were diluted to a final concentration of 5 μM in 50 mM Tris/HCl, pH 7.4 and 100 mM NaCl in the presence or absence of the indicated concentrations of ligand (final DMSO concentration no higher than 4 % v/v). CoA, dephosphoCoA or kinase inhibitors diluted from 10 mM DMSO stocks were assayed as described previously. Normalized data were processed using the Boltzmann equation to generate sigmoidal denaturation curves, and average Tm/ΔTm values calculated as previously described using GraphPad Prism software.

In assay [2] the target is T2, WT Aurora A (T288 phosphorylated, active) (Homo sapiens, UniProt O14965).
T2 construct: Bacterially expressed full-length His-Aurora A was used to determine the IC50 value for CoA; made in house; host or cells: E. coli BL21 (DE3) pLysS
T2 sequence (O14965 1-403): T1 sequence (O14965 1-403 T217E) with E217T
The assay is described as above. It counts as binding. The conditions noted are these: 5 mM ATP, 5 mM CoA or 0.1 mM MLN8237; for CoA dependent on non-reducing conditions. Here is the method: as §1, §2

The target of assay [3] is T3, kinase-dead D274N (inactive) Aurora A (Homo sapiens, UniProt O14965, D274N).
T3 construct: For enzyme and DSF assays, full-length human Aurora A and Aurora B and 1–43 TPX2 were produced; 6His (N); made in house; host or cells: E. coli
Described as above. Type of assay: binding. The following applies: 5 mM ATP or 5 mM CoA; CoA DTT-dependent. Here is the method: as §1, §2

The target of assay [4] is T4, C290A Aurora A (Homo sapiens, UniProt O14965, C290A).
T4 construct: For enzyme and DSF assays, full-length human Aurora A and Aurora B and 1–43 TPX2 were produced; made in house; host or cells: E. coli BL21 (DE3) pLysS
The assay is described as above. Type of assay: binding. The following applies: 5 mM ATP or 5 mM CoA. Here is the method: as §1, §2

The target in assay [5] is IRR (Homo sapiens, UniProt P14616). Nature of the assay: Kinase profiling screen (radioactive filter-binding assay). It counts as biochemical. The conditions noted are these: 100 μM compound, 5 μM ATP; read-out: Kinase activity, % of activity in the absence of inhibitor. The gist of the method: (§3)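 Residual kinase activity is read in duplicate wells containing 100 μM final test compound (CoA, dpCoA or ADP). Recombinant kinases use model substrates at ATP levels optimal for each enzyme, across a 117-kinase screen.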

For assay [6], the target named is IR (Homo sapiens, UniProt P06213). The description is as above. It counts as biochemical. The following applies: 100 μM compound, 20 μM ATP; read-out: Kinase activity, % of activity in the absence of inhibitor. A digest of the protocol:
as §3

Assay [7] addresses TrkA (Homo sapiens, UniProt P04629). The description is as above. The conditions noted are these: 100 μM compound, 20 μM ATP; read-out: Kinase activity, % of activity in the absence of inhibitor. It counts as biochemical. The gist of the method: as §3
In assay [8] the target is IGF-1R (Homo sapiens, UniProt P08069). The description is as above. Type of assay: biochemical. The conditions noted are these: 100 μM compound, 5 μM ATP; read-out: Kinase activity, % of activity in the absence of inhibitor. The gist of the method:
as §3

The source of these data is article PMC6812009, “Covalent Aurora A regulation by the metabolic integrator coenzyme A” (Redox Biology, 2019).

Molecules are shown by their SMILES. Numbering of substitutions follows the chain as printed.

T3 sequence (O14965 whole entry D274N): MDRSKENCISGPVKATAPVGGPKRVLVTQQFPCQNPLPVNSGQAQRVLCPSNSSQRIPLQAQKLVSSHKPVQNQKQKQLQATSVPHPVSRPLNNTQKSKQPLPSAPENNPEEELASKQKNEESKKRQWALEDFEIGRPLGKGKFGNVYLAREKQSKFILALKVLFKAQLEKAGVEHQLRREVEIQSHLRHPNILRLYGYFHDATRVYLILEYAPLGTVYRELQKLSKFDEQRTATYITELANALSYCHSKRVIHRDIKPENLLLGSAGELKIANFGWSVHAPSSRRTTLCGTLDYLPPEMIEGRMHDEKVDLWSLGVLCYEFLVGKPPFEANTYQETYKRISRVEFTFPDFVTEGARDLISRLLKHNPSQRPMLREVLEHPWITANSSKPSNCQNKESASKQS
T4 sequence (O14965 whole entry C290A): as the sequence (O14965 whole entry D274N) above, with N274D, C290A counted along it
Chain of IRR (P14616 27-1297): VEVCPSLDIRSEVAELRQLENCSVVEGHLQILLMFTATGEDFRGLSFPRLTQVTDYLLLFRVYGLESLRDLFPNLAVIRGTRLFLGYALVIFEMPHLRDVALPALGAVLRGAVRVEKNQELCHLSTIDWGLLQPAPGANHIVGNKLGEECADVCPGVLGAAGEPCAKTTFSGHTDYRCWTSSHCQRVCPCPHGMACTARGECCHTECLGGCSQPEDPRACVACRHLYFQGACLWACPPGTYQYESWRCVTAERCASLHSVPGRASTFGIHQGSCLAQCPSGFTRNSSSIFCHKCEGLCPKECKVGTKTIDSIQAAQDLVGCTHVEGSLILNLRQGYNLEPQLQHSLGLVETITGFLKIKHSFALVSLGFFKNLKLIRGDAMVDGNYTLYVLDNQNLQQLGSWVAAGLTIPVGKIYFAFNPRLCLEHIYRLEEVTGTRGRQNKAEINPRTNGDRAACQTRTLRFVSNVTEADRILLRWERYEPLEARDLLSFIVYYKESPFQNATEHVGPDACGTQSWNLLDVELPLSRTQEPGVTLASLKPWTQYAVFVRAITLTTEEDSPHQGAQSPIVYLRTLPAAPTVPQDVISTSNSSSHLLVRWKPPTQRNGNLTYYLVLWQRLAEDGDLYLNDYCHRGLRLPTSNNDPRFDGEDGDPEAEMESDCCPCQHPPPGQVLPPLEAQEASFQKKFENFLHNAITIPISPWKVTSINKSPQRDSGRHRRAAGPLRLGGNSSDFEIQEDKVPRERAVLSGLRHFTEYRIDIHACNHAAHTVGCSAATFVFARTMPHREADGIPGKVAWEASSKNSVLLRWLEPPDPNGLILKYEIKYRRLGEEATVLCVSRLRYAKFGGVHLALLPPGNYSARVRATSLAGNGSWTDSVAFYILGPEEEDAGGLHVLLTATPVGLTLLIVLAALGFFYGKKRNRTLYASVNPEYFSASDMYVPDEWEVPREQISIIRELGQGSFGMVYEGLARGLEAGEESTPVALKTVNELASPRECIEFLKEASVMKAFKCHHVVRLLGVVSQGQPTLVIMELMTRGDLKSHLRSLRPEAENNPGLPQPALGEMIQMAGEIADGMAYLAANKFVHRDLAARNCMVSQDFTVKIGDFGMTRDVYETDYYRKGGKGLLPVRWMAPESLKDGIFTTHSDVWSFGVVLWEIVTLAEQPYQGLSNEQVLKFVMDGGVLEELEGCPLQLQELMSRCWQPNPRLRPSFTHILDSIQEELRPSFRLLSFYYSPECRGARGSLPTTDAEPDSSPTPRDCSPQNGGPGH
Chain of IGF-1R (P08069 31-1367): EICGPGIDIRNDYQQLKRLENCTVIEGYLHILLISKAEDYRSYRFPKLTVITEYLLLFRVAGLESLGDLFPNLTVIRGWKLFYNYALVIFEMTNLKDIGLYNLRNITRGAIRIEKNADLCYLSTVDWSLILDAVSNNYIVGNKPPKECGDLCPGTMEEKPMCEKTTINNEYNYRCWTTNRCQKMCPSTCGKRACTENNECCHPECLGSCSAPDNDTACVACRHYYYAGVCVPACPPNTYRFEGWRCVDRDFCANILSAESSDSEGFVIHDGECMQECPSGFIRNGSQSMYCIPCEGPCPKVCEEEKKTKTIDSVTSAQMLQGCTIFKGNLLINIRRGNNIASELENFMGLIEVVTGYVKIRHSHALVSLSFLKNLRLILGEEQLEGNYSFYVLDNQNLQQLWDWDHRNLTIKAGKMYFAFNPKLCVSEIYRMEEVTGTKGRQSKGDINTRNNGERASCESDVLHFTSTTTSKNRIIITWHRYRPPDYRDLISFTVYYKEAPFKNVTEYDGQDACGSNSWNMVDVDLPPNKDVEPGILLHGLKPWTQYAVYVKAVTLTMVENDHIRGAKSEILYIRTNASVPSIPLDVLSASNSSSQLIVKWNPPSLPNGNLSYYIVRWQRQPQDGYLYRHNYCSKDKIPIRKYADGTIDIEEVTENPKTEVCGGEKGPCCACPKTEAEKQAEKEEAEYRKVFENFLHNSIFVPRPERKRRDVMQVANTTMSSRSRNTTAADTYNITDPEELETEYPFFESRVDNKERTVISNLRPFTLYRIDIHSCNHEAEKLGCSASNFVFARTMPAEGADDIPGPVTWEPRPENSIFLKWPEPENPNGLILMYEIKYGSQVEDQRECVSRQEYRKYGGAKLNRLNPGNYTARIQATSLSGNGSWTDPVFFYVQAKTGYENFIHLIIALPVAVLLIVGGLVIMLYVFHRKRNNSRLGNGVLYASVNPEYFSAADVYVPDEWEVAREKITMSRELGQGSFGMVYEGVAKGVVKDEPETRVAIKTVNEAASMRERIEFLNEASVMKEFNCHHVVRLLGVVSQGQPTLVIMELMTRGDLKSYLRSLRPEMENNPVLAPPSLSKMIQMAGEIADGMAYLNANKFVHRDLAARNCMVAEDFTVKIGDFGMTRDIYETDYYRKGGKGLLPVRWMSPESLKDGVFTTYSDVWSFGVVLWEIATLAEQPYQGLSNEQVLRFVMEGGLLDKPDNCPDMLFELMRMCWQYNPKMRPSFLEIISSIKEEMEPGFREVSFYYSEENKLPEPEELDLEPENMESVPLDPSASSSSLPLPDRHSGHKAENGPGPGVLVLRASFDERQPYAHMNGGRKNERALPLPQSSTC
Chain of TrkA (P04629 33-796): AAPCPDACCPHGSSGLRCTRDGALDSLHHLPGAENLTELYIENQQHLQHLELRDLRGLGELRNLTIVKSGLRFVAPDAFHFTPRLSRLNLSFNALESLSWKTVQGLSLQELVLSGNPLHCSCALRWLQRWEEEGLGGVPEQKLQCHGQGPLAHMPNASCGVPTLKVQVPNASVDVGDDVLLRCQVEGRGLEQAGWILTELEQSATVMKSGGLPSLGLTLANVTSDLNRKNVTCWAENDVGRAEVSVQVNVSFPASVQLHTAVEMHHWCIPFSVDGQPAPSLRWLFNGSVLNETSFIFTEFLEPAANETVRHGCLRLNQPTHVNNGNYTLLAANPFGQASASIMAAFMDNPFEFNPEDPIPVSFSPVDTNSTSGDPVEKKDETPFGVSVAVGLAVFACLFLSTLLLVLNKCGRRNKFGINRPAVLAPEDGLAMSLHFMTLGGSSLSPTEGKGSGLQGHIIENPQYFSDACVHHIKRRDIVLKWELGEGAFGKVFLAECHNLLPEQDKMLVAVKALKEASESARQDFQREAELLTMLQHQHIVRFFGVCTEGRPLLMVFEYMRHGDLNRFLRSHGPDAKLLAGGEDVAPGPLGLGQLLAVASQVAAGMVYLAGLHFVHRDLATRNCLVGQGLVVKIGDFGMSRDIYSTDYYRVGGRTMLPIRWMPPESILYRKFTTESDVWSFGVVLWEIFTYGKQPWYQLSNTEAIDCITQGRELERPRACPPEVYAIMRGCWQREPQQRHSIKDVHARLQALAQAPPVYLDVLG

`CC(C)(COP(=O)(O)OP(=O)(O)OC[C@H]1O[C@@H](n2cnc3c(N)ncnc32)[C@H](O)[C@@H]1OP(=O)(O)O)[C@@H](O)C(=O)NCCC(=O)NCCS` [CoA, Coenzyme A]: the Ligand-induced thermal shift result in assay [1] is listed as “completely abolished”. Further, the “Change in thermal stability (ΔTm)” value in assay [2] is given as “marked change in thermal stability”. Besides, the “Ligand interaction by thermal shift” value in assay [3] is “still able to interact”. For the same compound, the “Ligand binding / thermal stabilization” value in assay [4] was “deficient in CoA-induced thermal stabilization”. The activity at 100 µM is 92% in assay [5], 100% in assay [6], 104% in assay [7] and 93% in assay [8].
